Reference: publication PMC3783656 (Bioorganic & medicinal chemistry letters, 2013)
pEC50, pIC50, pKi: −log10 of the molar value. Values after ≈ are worked out from the molar mass of the structure shown.

Tests used:
[1] = molecular target: MELK (Homo sapiens, UniProt Q14680); experiment: KINOMEscan kinase binding; conditions: 10 μM; % of kinase remaining bound to bead-bound ligand
[2] = molecular target: T1, FLT3 (Homo sapiens, UniProt P36888); experiment: Off-target kinase inhibition, Reaction Biology Corporation; format: biochemical; conditions: read-out: IC50 for inhibition of off-target kinase FLT3; data obtained by Reaction Biology Corporation
T1 sequence (P36888 27-993): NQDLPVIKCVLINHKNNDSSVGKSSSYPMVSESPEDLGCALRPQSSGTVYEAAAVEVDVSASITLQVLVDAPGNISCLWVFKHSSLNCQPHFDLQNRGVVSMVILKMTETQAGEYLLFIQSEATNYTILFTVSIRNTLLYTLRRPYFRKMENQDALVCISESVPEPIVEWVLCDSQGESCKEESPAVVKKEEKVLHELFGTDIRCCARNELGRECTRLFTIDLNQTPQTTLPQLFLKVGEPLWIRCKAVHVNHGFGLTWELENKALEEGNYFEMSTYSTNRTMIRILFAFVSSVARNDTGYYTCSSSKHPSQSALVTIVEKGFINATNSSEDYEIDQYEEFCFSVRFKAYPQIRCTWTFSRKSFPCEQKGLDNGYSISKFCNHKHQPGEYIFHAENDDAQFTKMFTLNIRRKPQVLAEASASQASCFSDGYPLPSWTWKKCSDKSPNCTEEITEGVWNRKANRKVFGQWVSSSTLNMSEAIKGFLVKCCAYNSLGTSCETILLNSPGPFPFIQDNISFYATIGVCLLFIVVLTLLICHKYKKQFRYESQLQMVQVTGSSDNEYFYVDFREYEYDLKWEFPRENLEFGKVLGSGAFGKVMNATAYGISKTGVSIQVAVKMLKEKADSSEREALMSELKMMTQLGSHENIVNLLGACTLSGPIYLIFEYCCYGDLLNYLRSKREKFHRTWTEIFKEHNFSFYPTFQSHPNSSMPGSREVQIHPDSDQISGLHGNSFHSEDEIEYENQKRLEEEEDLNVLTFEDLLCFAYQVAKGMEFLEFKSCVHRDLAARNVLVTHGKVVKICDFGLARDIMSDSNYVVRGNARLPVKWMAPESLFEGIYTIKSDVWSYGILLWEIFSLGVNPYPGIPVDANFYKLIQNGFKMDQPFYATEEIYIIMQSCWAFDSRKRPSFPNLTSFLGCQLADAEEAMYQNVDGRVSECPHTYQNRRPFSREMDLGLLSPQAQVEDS

[3] = molecular target: PRKCQ (Homo sapiens, UniProt Q04759); experiment: KINOMEscan kinase binding; conditions: 10 μM; % of kinase remaining bound to bead-bound ligand
[4] = test system: 442 kinases; experiment: DiscoverRX KINOMEscan analysis of 442 kinases; format: binding; conditions: 10 μM, KINOMEscan of 442 kinases
[5] = molecular target: T1, FLT3; experiment: KINOMEscan kinase binding; conditions: 10 μM; % of kinase remaining bound to bead-bound ligand
[6] = molecular target: TAOK3 (Homo sapiens, UniProt Q9H2K8); experiment: KINOMEscan kinase binding; conditions: 10 μM; % of kinase remaining bound to bead-bound ligand
[7] = molecular target: RIOK3 (Homo sapiens, UniProt O14730); experiment: KINOMEscan kinase binding; conditions: 10 μM; % of kinase remaining bound to bead-bound ligand
[8] = molecular target: CDK4/cyclin D3 (Homo sapiens, UniProt P11802); experiment: KINOMEscan kinase binding; conditions: 10 μM; % of kinase remaining bound to bead-bound ligand
[9] = test system: human melanoma A375 cell line; experiment: MTT assay against A375 melanoma cells; format: cell-based; conditions: read-out: MTT assay A375 EC50; human A375 melanoma cell line
[10] = test system: FLT3 (ITD); experiment: KINOMEscan kinase binding; conditions: 10 μM; % of kinase remaining bound to bead-bound ligand
[11] = molecular target: MARK2 (Homo sapiens, UniProt Q7KZI7); experiment: KINOMEscan kinase binding; conditions: 10 μM; % of kinase remaining bound to bead-bound ligand
[12] = molecular target: CDK13 (Homo sapiens, UniProt Q14004); experiment: KINOMEscan kinase binding; conditions: 10 μM; % of kinase remaining bound to bead-bound ligand
[13] = molecular target: CSNK1A1L (Homo sapiens, UniProt Q8N752); experiment: KINOMEscan kinase binding; conditions: 10 μM; % of kinase remaining bound to bead-bound ligand
[14] = molecular target: FLT3 (K663Q) (Homo sapiens, UniProt P36888, K663Q); experiment: KINOMEscan kinase binding; conditions: 10 μM; % of kinase remaining bound to bead-bound ligand
[15] = molecular target: CSNK1A1 (Homo sapiens, UniProt P48729); experiment: KINOMEscan kinase binding; conditions: 10 μM; % of kinase remaining bound to bead-bound ligand
[16] = molecular target: CDK7 (Homo sapiens, UniProt P50613); experiment: KINOMEscan kinase binding; conditions: 10 μM; % of kinase remaining bound to bead-bound ligand
[17] = molecular target: BMP2K (Homo sapiens, UniProt Q9NSY1); experiment: KINOMEscan kinase binding; conditions: 10 μM; % of kinase remaining bound to bead-bound ligand
[18] = Mouse PK studies; format: in vivo; conditions: IV dosing, 1 mg/kg, 10/10/80 DMSO/Tween/water
[19] = molecular target: LATS2 (Homo sapiens, UniProt Q9NRM7); experiment: KINOMEscan kinase binding; conditions: 10 μM; % of kinase remaining bound to bead-bound ligand
[20] = molecular target: CDK4/cyclin D1 (Homo sapiens, UniProt P11802); experiment: KINOMEscan kinase binding; conditions: 10 μM; % of kinase remaining bound to bead-bound ligand
[21] = Microsome stability, rat liver microsomes; conditions: rat liver microsomes; second value of h/r/m
[22] = molecular target: CSNK1E [CK1ε] (Homo sapiens, UniProt P49674); experiment: KINOMEscan kinase binding; conditions: 10 μM; % of kinase remaining bound to bead-bound ligand
[23] = molecular target: T2, CK1δ (Homo sapiens, UniProt P48730); experiment: CK1δ inhibition, Reaction Biology Corp.; format: biochemical; conditions: read-out: IC50 CK1δ; data obtained by Reaction Biology Corp.
[24] = Solubility in PBS buffer; format: physicochemical
[25] = Microsome stability, human liver microsomes; conditions: human liver microsomes; first value of h/r/m
[26] = molecular target: FLT3 (D835H) (Homo sapiens, UniProt P36888, D835H); experiment: KINOMEscan kinase binding; conditions: 10 μM; % of kinase remaining bound to bead-bound ligand
[27] = molecular target: FLT3 (D835Y) (Homo sapiens, UniProt P36888, D835Y); experiment: KINOMEscan kinase binding; conditions: 10 μM; % of kinase remaining bound to bead-bound ligand
[28] = Microsome stability, mouse liver microsomes; conditions: mouse liver microsomes; third value of h/r/m
[29] = molecular target: ROCK2 (Homo sapiens, UniProt O75116); experiment: KINOMEscan kinase binding; conditions: 10 μM; % of kinase remaining bound to bead-bound ligand
[30] = molecular target: CSNK1D [CK1δ] (Homo sapiens, UniProt P48730); experiment: KINOMEscan kinase binding; conditions: 10 μM; % of kinase remaining bound to bead-bound ligand
[31] = molecular target: NLK (Homo sapiens, UniProt Q9UBE8); experiment: KINOMEscan kinase binding; conditions: 10 μM; % of kinase remaining bound to bead-bound ligand
[32] = molecular target: MAST1 (Homo sapiens, UniProt Q9Y2H9); experiment: KINOMEscan kinase binding; conditions: 10 μM; % of kinase remaining bound to bead-bound ligand
[33] = molecular target: T2, CK1δ; experiment: Kinetic analysis; format: biochemical; conditions: ATP competitive
[34] = test system: FLT3 (N841L); experiment: KINOMEscan kinase binding; conditions: 10 μM; % of kinase remaining bound to bead-bound ligand
[35] = Solubility in DMEM/10% FBS; format: physicochemical

T2 sequence (P48730 whole entry): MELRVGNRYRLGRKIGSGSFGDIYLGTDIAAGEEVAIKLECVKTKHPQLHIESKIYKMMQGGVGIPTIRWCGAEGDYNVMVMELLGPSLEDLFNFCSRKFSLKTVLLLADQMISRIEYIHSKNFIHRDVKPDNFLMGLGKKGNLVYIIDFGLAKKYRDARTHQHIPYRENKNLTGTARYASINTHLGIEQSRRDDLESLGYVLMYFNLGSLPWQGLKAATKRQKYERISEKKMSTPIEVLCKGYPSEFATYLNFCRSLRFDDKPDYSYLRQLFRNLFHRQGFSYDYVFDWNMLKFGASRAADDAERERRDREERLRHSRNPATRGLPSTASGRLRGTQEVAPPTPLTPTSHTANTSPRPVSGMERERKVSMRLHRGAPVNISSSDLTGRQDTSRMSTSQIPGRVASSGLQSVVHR
Chain of CSNK1A1L (Q8N752 whole entry): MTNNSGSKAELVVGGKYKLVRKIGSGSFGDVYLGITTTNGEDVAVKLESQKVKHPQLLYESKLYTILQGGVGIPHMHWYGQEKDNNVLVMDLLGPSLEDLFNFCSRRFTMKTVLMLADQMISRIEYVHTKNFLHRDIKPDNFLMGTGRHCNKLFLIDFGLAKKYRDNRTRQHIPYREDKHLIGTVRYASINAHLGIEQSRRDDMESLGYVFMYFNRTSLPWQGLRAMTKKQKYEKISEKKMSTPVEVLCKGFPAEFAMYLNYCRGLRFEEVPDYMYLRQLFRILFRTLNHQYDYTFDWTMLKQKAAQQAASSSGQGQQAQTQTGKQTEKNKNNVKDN
Chain of RIOK3 (O14730 whole entry): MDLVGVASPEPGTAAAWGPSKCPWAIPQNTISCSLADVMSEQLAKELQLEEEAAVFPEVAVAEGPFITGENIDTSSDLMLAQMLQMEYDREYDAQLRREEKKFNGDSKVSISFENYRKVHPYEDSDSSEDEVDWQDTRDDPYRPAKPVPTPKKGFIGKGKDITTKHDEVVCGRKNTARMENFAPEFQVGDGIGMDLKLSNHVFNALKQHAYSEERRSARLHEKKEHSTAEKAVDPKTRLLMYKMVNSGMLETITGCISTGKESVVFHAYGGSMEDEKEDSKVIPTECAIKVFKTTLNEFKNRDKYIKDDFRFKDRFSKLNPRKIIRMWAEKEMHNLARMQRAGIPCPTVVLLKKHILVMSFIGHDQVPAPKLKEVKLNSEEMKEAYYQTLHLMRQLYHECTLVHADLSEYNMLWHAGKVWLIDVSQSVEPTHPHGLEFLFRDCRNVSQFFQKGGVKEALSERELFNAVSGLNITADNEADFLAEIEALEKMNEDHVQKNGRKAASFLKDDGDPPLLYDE
Chain of CDK7 (P50613 whole entry): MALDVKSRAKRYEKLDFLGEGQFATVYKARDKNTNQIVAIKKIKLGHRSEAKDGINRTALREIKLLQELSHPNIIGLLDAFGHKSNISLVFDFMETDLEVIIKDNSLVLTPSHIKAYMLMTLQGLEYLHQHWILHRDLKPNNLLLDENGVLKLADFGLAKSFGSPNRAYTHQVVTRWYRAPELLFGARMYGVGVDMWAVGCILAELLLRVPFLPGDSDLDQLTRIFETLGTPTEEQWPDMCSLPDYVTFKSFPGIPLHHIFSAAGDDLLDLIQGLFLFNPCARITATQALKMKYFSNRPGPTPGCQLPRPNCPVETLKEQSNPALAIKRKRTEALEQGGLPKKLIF
Chain of CDK13 (Q14004 whole entry): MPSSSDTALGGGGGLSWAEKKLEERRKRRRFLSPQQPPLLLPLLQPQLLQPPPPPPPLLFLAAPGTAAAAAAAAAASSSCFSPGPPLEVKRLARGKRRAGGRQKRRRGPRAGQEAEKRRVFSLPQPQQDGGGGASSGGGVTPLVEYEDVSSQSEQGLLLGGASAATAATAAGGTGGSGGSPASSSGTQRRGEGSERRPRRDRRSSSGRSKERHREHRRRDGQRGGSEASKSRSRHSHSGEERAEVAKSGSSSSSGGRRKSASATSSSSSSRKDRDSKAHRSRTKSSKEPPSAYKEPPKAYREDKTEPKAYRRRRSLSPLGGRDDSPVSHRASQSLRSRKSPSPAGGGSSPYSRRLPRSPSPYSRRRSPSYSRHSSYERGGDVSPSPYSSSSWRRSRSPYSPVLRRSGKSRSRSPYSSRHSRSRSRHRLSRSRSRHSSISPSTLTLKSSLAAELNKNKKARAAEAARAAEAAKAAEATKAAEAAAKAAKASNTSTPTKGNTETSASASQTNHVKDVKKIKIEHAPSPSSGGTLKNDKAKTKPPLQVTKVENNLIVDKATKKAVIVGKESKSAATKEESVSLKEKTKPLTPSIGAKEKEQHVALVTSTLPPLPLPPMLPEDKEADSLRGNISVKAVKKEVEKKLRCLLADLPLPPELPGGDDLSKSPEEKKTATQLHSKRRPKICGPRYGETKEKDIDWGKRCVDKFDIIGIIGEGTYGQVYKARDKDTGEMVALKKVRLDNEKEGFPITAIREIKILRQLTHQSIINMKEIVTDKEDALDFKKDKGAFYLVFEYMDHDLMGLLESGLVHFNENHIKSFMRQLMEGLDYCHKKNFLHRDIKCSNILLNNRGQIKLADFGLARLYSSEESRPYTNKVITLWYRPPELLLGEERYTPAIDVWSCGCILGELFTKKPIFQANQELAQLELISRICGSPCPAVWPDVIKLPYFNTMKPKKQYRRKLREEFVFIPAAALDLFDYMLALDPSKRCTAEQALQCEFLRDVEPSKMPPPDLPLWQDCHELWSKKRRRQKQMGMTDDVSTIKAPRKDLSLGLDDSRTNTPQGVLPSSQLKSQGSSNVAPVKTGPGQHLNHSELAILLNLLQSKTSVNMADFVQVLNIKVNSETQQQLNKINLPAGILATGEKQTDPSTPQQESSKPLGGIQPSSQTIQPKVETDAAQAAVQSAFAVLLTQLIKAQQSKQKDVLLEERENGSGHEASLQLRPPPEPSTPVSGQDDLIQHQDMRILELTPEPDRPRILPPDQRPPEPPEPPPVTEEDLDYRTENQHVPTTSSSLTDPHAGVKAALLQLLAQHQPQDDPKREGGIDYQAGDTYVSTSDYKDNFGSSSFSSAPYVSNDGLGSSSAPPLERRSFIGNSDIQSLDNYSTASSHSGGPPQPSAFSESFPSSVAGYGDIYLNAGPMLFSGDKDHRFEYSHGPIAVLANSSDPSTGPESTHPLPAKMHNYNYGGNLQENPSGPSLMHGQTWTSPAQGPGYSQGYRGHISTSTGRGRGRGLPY
Chain of MARK2 (Q7KZI7 whole entry): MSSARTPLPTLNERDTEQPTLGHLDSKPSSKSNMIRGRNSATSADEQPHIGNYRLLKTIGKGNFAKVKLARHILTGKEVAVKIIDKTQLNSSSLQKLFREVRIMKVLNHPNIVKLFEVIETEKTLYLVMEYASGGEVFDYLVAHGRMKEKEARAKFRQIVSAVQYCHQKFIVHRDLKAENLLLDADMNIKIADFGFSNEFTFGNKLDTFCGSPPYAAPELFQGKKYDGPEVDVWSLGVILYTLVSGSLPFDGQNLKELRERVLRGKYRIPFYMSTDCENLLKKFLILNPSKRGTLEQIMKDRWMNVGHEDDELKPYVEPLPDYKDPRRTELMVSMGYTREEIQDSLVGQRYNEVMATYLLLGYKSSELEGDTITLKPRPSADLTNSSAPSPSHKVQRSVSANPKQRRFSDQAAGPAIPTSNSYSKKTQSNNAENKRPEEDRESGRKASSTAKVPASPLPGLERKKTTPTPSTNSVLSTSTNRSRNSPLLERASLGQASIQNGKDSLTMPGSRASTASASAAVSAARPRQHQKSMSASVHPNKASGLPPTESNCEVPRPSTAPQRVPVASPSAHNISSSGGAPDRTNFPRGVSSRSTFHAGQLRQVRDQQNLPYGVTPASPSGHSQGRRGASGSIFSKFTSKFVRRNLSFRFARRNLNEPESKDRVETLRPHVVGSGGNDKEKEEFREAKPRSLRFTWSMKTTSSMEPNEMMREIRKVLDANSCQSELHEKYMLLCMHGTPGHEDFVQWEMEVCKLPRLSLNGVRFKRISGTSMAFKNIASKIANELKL
Chain of CDK4/cyclin D3 (P11802 whole entry): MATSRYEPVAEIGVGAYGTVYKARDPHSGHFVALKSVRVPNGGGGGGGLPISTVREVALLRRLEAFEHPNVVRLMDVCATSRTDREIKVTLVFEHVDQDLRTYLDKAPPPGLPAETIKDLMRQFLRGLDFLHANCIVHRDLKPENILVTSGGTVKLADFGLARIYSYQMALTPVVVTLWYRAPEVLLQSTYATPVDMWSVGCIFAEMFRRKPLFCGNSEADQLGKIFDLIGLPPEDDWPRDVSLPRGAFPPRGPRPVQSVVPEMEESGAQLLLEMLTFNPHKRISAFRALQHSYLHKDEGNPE
Chain of CDK4/cyclin D3 (P30281 whole entry partner): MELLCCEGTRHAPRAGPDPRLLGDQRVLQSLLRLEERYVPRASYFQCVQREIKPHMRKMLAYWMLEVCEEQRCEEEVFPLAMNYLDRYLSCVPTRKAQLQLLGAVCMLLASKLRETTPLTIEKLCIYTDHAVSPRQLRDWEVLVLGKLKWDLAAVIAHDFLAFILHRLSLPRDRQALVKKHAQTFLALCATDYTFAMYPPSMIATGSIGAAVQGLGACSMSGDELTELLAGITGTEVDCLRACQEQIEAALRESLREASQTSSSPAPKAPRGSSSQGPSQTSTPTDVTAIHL
Chain of CDK4/cyclin D1 (P11802 whole entry): as the sequence (P11802 whole entry) above
Chain of CDK4/cyclin D1 (P24385 whole entry partner): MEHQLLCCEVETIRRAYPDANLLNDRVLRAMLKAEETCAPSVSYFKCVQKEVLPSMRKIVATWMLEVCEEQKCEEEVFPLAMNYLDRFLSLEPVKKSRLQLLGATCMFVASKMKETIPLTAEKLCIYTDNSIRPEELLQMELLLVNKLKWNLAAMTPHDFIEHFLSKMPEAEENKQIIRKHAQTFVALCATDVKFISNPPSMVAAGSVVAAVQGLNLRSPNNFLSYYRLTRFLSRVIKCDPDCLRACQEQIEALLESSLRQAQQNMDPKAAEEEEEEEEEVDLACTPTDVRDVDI
Chain of CSNK1D [CK1δ] (P48730 whole entry): as the sequence (P48730 whole entry) above

| Structure (SMILES) | pIC50 [2] | % control activity, PRKCQ [3] | % control activity, FLT3 [5] | % control activity, RIOK3 [7] | % control activity, CDK4/cyclin D3 [8] | pEC50 [9] | % control activity, FLT3 (ITD) [10] | % control activity, MARK2 [11] | % control activity, CDK13 [12] | % control activity, CSNK1A1L [13] | % control activity, CSNK1A1 [15] | % control activity, CDK7 [16] | % control activity, BMP2K [17] | AUC [18] | Cl [18] | Cmax [18] | T1/2 [18] | % control activity, LATS2 [19] | % control activity, CDK4/cyclin D1 [20] | also measured |
| --- | --- | --- | --- | --- | --- | --- | --- | --- | --- | --- | --- | --- | --- | --- | --- | --- | --- | --- | --- | --- |
| Fc1cccc(-n2cnc3c(NCc4nc5c(F)c(F)ccc5[nH]4)nc(N4CCOCC4)nc32)c1 [SR-3029] | 5.52 | 88% | 3.7% | 100% | 19% | 7.07 | 19% | 7.3% | 100% | 22% | 22% | 38% | 39% | 6.35 µM·h | 5.5 mL/min/kg | 7.3 µM | 0.90 h | 26% | 4.4% | % control activity, MELK [1]: 22%; Number of off-target kinases inhibited ≥90% [4]: 6; % control activity, TAOK3 [6]: 34%; % control activity, FLT3 (K663Q) [14]: 12% |
| O=[N+]([O-])c1cccc2[nH]c(CNc3nc(N4CCOCC4)nc4c3ncn4-c3ccsc3)nc12 [SR-1277] | 6.52 | 100% | 3.4% | 9.6% | 56% | 7.66 | 3.7% | 100% | 1% | 9.6% | 63% | 72% | 6.2% | 1.26 µM·h | 2.8 mL/min/kg | 1.2 µM | 1.42 h | 100% | 56% | Microsome stability T1/2 (rat) [21]: 5 min; % control activity, CSNK1E [CK1ε] [22]: 0.5%; pIC50 [23]: 7.31; Solubility [24]: 1 µM (≈ 0.478 µg/mL); Microsome stability T1/2 (human) [25]: 7 min; % control activity, FLT3 (D835H) [26]: 7.3%; % control activity, FLT3 (D835Y) [27]: 11%; Microsome stability T1/2 (mouse) [28]: 2 min; % control activity, ROCK2 [29]: 100%; % control activity, CSNK1D [CK1δ] [30]: 4.2%; % control activity, NLK [31]: 38%; % control activity, MAST1 [32]: 100%; pKi [33]: 7.16; % control activity, FLT3 (N841L) [34]: 11%; Solubility [35]: 1 µM (≈ 0.478 µg/mL) |
